From US20260242352A1, “INHIBITION OF SHIP1 AS A THERAPEUTIC STRATEGY FOR THE TREATMENT OF ALZHEIMER'S DISEASE” (The Trustees of Indiana University, priority 2022, published 2026)

Experiments:
HMC3 cells = test: pHrodo-myelin phagocytosis/cell health assay, HMC3 cells; assay type: cell-based; conditions: Homo sapiens, compound 48 hrs, 60 μM to 3 nM, (n) in cell
Experimental: pHrodo-myelin phagocytosis/cell health assay with microglial cells. This 384-well plate high content imaging assay was developed to quantify phagocytosis and cell health simultaneously using either BV2 or HMC3 immortalized microglial cell lines or primary microglia isolated from mouse brain. Cells were cultured in DMEM GlutaMax media (ThermoFisher) containing 10% FBS and Pen-Strep in 37° C. 5% CO2 incubator.
Day 1: Cells were plated (Corning Falcon 384 well Optilux Black and clear bottom plates for imaging) with BV2 at 400 cells/45 μl/well, HMC3 at 600 cells/45 μl/well, or primary at 2000 cell/45 μl/well.
Day 2: Cells were treated with 10× serially diluted compounds in a dose range of 60 μM to 3 nM for 48 hrs at 37° C.
Day 3: Cells were seeded with pHrodo-myelin (for total 20 hrs) 24 hrs after starting compound treatment. The pHrodo-myelin stocks were at 1 mg/ml (protein equivalent) stored in −20° C. or −80° C. freezer. Stocks were thawed and diluted with culture media into 10× seeding solution (50 μg/ml) and added 5 μl/well to 384 well cell plate.
Day 4: Cell staining and imaging. Nuclear staining solution was prepared by adding 1 μl of 10 mg/mL Hoechst-33342 to every 1 ml culture media that will be added to cell plate at 20 μl/well. The final concentration of Hoechst-33342 to cells was about 2.5 μg/ml. Cell plates were incubated for >30 min at 37° C. before imaging. Cell plates were scanned with an ArrayScan automatic high content imaging system using a 10× objective lens, 4 fields/well collected. Three measurements were obtained 1) mean total phagocytosis spot intensity per cell, 2) total cell counts per well, and 3) mean average nuclear intensity per cell for cell health.
This 384-well plate high content imaging assay was developed to quantify phagocytosis and cell health simultaneously using either BV2 or HMC3 immortalized microglial cell lines or primary microglia isolated from mouse brain. Cells were cultured in DMEM GlutaMax media (ThermoFisher) containing 10% FBS and Pen-Strep in 37° C. 5% CO2 incubator. Day 1: Cells were plated (Corning Falcon 384 well Optilux Black and clear bottom plates for imaging) with BV2 at 400 cells/45 μl/well, HMC3 at 600 cells/45 μl/well, or primary at 2000 cell/45 μl/well. Day 2: Cells were treated with 10× serially diluted compounds in a dose range of 60 μM to 3 nM for 48 hrs at 37° C. Day 3: Cells were seeded with pHrodo-myelin (for total 20 hrs) 24 hrs after starting compound treatment. The pHrodo-myelin stocks were at 1 mg/ml (protein equivalent) stored in −20° C. or −80° C. freezer. Stocks were thawed and diluted with culture media into 10× seeding solution (50 μg/ml) and added 5 μl/well to 384 well cell plate. Day 4: Cell staining and imaging. Nuclear staining solution was prepared by adding 1 μl of 10 mg/mL Hoechst-33342 to every 1 ml culture media that will be added to cell plate at 20 μl/well. The final concentration of Hoechst-33342 to cells was about 2.5 μg/ml. Cell plates were incubated for >30 min at 37° C. before imaging. Cell plates were scanned with an ArrayScan automatic high content imaging system using a 10× objective lens, 4 fields/well collected. Three measurements were obtained 1) mean total phagocytosis spot intensity per cell, 2) total cell counts per well, and 3) mean average nuclear intensity per cell for cell health.

SHIP1 = target: T1, SHIP1 (Homo sapiens, UniProt Q92835); test: Malachite green enzyme assay; assay type: biochemical; conditions: Table 1; PI(3,4,5)P3-diC8 52 μM, enzyme 10 nM, SHIP1 Ptase-C2, 25° C., pH7.4; geometric mean; read-out: SHIP1 IC50 μM (n)
T1 sequence (Q92835 396-858): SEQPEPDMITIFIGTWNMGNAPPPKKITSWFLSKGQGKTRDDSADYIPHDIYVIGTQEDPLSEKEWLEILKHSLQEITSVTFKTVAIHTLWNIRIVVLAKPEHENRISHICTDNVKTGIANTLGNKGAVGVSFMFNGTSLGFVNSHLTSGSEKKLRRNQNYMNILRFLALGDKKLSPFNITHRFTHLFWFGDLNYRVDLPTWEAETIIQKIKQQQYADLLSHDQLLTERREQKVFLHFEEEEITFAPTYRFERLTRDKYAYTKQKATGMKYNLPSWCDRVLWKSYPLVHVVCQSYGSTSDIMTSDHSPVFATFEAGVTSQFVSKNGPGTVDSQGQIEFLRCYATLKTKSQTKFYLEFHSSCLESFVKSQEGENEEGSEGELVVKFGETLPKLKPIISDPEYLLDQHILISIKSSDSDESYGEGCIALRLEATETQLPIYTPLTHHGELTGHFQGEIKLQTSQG
Description: The inventors have performed a screen of 50K compounds at the SHIP1 phosphatase, analyzed a publicly available fragment-based screen, and evaluated inhibitors reported in the literature. They utilized the malachite green assay with PtdIns(3,4,5)P3-diC8 and SHIP1 Ptase-C2 to measure inhibitory potency. A Cellular Thermal Shift Assay was used to confirm target engagement in cells. A phosphoAKT assay was used to provide additional evidence of on-target activity. A high-content imaging assay measuring phagocytosis, cell number, and nuclear intensity was implemented using the BV2 and HMC3 cell lines to characterize cellular pharmacology and cytotoxicity. […] Inhibitors predicted to have drug-like properties were subjected to assays measuring solubility, cellular permeability, and mouse microsomal stability. A physiological based pharmacokinetic model was compared to measured exposure in vivo for select compounds upon oral administration in mice.
Malachite Green Enzyme Assay. […] Compounds diluted in DMSO were added to 384-well plates. Enzyme solution was added. After a 20 min incubation period, the reaction was initiated by addition of PI(3,4,5)P3-diC8. Final compound concentrations ranged from 50 nM to 950 μM. Final reaction concentrations for the PI(3,4,5)P3-diC8 substrate and the enzyme were 52 μM and 10 nM respectively. The reaction was quenched after 10 min by adding Malachite BioMol Green (Enzo Lifesciences, PA, USA). Plates were then incubated for 30 min at room temperature. Absorbance (620 nm) was measured using a SpectraMax Me5 Microplate Reader (Molecular Devices, LLC, USA). IC50 values were calculated by fitting absorbance versus inhibitor concentration.
Compounds diluted in DMSO were added to 384-well plates. Enzyme solution was added. After a 20 min incubation period, the reaction was initiated by addition of PI(3,4,5)P3-diC8. Final compound concentrations ranged from 50 nM to 950 μM. Final reaction concentrations for the PI(3,4,5)P3-diC8 substrate and the enzyme were 52 μM and 10 nM respectively. The reaction was quenched after 10 min by adding Malachite BioMol Green (Enzo Lifesciences, PA, USA). Plates were then incubated for 30 min at room temperature. Absorbance (620 nm) was measured using a SpectraMax Me5 Microplate Reader (Molecular Devices, LLC, USA). IC50 values were calculated by fitting absorbance versus inhibitor concentration and are reported as the geometric mean and standard error of mean with the number of repeats (n) indicated. Compounds and activities are as depicted in tables 1 and 2 above.

| EC50 (HMC3 cells) [µM] | IC50 (SHIP1) [µM] | SMILES |
| --- | --- | --- |
| 15.9 |  | CC(C)(C)OC(=O)N1CCC(n2cc(-c3cncc(OCc4ccccc4Cl)c3)cn2)CC1 [Compound 1, tert-butyl 4-(4-{5-[(2-chlorophenyl)methoxy]pyridin-3-yl}-1H-pyrazol-1-yl)piperidine-1-carboxylate] |
| 1.44 | 81.9 | CC(C)(C)OC(=O)N1CCC(n2cc(-c3cncc(OCc4ccccc4F)c3)cn2)CC1 [Compound 2, tert-butyl 4-(4-(5-((2-fluorobenzyl)oxy)pyridin-3-yl)-1H-pyrazol-1-yl)piperidine-1-carboxylate] |
| 4.19 | 116 | Cc1ccccc1COc1cncc(-c2cnn(C3CCN(C(=O)OC(C)(C)C)CC3)c2)c1 [Compound 3, tert-butyl 4-(4-(5-((2-methylbenzyl)oxy)pyridin-3-yl)-1H-pyrazol-1-yl)piperidine-1-carboxylate] |
| 2.01 | 90.3 | CC(C)(C)OC(=O)N1CCC(n2cc(-c3cncc(OCc4ccccc4)c3)cn2)CC1 [Compound 4, tert-butyl 4-(4-(5-(benzyloxy)pyridin-3-yl)-1H-pyrazol-1-yl)piperidine-1-carboxylate] |
| 3.72 | 35.7 | CC(C)(C)OC(=O)N1CCC(n2cc(-c3cncc(OCc4c(Cl)cccc4Cl)c3)cn2)CC1 [Compound 5, tert-butyl 4-(4-(5-((2,6-dichlorobenzyl)oxy)pyridin-3-yl)-1H-pyrazol-1-yl)piperidine-1-carboxylate] |
| 2.43 | 57 | CC(C)(C)OC(=O)N1CCC(n2cc(-c3cncc(OCc4ccc(Br)cc4)c3)cn2)CC1 [Compound 7, tert-butyl 4-(4-(5-((4-bromobenzyl)oxy)pyridin-3-yl)-1H-pyrazol-1-yl)piperidine-1-carboxylate] |
| 0.584 | 302 | Cl.Clc1ccccc1COc1cncc(-c2cnn(C3CCNCC3)c2)c1 [Compound 9, 3-((2-chlorobenzyl)oxy)-5-(1-(piperidin-4-yl)-1H-pyrazol-4-yl)pyridine hydrochloride] |
| 2.1 |  | CC(C)(C)CCN1CCC(n2cc(-c3cncc(OCc4ccccc4Cl)c3)cn2)CC1 [Compound 15, 3-((2-chlorobenzyl)oxy)-5-(1-(1-(3,3-dimethylbutyl)piperidin-4-yl)-1H-pyrazol-4-yl)pyridine] |
| 2.07 | 102 | CC(C)(C)CC(=O)N1CCC(n2cc(-c3cncc(OCc4ccccc4Cl)c3)cn2)CC1 [Compound 16, 1-(4-(4-(5-((2-chlorobenzyl)oxy)pyridin-3-yl)-1H-pyrazol-1-yl)piperidin-1-yl)-3,3-dimethylbutan-1-one] |
| 0.722 |  | C[C@H](Oc1cncc(-c2cnn(C3CCNCC3)c2)c1)c1ccccc1Cl [Compound 21, (S)-3-(1-(2-chlorophenyl)ethoxy)-5-(1-(piperidin-4-yl)-1H-pyrazol-4-yl)pyridine] |
|  | 152 | C[C@@H](Oc1cncc(-c2cnn(C3CCNCC3)c2)c1)c1ccccc1Cl [Compound 22, (R)-3-(1-(2-chlorophenyl)ethoxy)-5-(1-(piperidin-4-yl)-1H-pyrazol-4-yl)pyridine] |
| 0.145 |  | C[C@@H](Oc1cncc(-c2cnn(C3CCNCC3)c2)c1)c1ccc(Cl)cc1 [Compound 23, (R)-3-(1-(4-chlorophenyl)ethoxy)-5-(1-(piperidin-4-yl)-1H-pyrazol-4-yl)pyridine] |
| 1.35 | 851 | Cc1ccccc1COc1cncc(-c2cnn(C3CCNCC3)c2)c1 [Compound 25, 3-[(2-Methylphenyl)methoxy]-5-[1-(piperidin-4-yl)-1H-pyrazol-4-yl]pyridine] |
|  | 690 | Clc1ccccc1COc1cncc(-c2ccn(C3CCNCC3)n2)c1 [Compound 26, 3-((2-chlorobenzyl)oxy)-5-(1-(piperidin-4-yl)-1H-pyrazol-3-yl)pyridine] |
|  | 332 | Clc1ccccc1COc1cncc(-n2ccc(C3CCNCC3)n2)c1 [Compound 27, 3-((2-chlorobenzyl)oxy)-5-(3-(piperidin-4-yl)-1H-pyrazol-1-yl)pyridine] |
|  | 601 | Clc1ccccc1COc1cncc(-n2cc(C3CCNCC3)cn2)c1 [Compound 28, 3-((2-chlorobenzyl)oxy)-5-(4-(piperidin-4-yl)-1H-pyrazol-1-yl)pyridine] |
|  | 186 | Clc1ccccc1COc1cccc(-c2cnn(C3CCNCC3)c2)c1 [Compound 29, 4-(4-(3-((2-chlorobenzyl)oxy)phenyl)-1H-pyrazol-1-yl)piperidine] |

| SMILES | EC50 (HMC3 cells) [µM] | IC50 (SHIP1) [µM] |
| --- | --- | --- |
| Cl.Clc1ccc(COc2cncc(-c3cnn(C4CCNCC4)c3)c2)c(Cl)c1 [Compound 10, 3-((2,4-dichlorobenzyl)oxy)-5-(1-(piperidin-4-yl)-1H-pyrazol-4-yl)pyridine hydrochloride] | 0.308 | 286 |
